From PMC9297786 (Molecular Oncology, 2022)
Like-named read-outs stand apart in the source and are kept apart here.

Legend:
[1] = target: T1, ephrin type‐B receptor 4 (EPHB4) (Homo sapiens, UniProt P54760); assay: Kinase‐Glo Plus luminescence kinase assay; SPR binding also measured; format: biochemical
T1 construct: EPHB4 kinase (Carna Biosciences)
T1 sequence (P54760 16-987): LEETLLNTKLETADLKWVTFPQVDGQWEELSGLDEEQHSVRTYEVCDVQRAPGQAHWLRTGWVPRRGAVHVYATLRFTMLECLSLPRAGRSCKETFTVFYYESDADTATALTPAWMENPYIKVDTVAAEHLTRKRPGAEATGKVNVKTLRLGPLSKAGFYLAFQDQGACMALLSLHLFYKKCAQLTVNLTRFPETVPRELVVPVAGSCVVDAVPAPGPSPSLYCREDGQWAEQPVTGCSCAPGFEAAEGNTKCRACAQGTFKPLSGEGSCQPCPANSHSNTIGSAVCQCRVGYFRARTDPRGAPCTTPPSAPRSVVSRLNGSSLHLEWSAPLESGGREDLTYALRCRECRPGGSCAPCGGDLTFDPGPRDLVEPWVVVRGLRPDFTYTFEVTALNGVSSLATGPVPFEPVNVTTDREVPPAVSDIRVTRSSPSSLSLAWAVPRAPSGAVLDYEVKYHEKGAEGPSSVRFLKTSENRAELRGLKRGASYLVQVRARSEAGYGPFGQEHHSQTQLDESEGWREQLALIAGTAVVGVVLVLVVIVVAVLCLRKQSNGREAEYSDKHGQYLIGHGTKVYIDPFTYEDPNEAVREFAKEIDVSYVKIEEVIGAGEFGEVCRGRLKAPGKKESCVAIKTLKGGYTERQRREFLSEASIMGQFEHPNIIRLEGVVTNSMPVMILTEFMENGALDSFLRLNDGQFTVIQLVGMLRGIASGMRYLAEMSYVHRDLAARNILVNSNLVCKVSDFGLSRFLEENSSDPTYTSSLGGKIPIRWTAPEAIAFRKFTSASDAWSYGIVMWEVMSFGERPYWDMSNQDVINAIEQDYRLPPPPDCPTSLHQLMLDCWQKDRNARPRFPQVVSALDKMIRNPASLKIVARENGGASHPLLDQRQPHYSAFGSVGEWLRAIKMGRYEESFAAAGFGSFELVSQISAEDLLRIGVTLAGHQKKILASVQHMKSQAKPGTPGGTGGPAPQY
Source text: Kinase‐Glo Plus luminescence kinase assay; SPR binding also measured on ephrin type‐B receptor 4 (EPHB4) | […]

MEG-01 cells = assay: cells; design: MTT cell growth inhibition after 48 h; details: Homo sapiens, MEG-01, 48 h
Protocol: (§1) Exponential‐phase cells were seeded into 96‐well plates at a density of 2 × 10^4 cells per well in complete medium. After 24 h, cells were treated with drugs at indicated concentrations and incubated for 48 h. Fresh medium containing 20 μL MTT solution (5 mg·mL^−1) was then added to each well. Then plates were incubated for another 4 h at 37 °C. After removing the medium, 150 μL DMSO was added to each well. The absorbance was recorded at 490 nm in the microplate reader and the inhibition ratio (I%) was calculated. The cell growth assay was conducted as described previously. […] To identify an EPHB4‐specific inhibitor with a potential of rapid translation into clinic, a pool of clinically approved TKIs and compounds was screened in this study (Fig. S2 and Table S4).

H9 cells = assay: cells; design: MTT cell growth inhibition after 48 h; details: Homo sapiens, H9, 48 h
Protocol: as §1

K562 [2] = assay: cells; design: MTT cell growth inhibition after 48 h; details: Homo sapiens, K562, 48 h
Protocol: as §1

K562 [3] = assay: cells; design: MTT cell growth inhibition assay, absorbance at 490 nm
Protocol: as §1, with “previously. K562 cells were cultured in IMDM containing 10% fetal bovine serum, 100 U·mL^−1 penicillin and 100 U·mL^−1 streptomycin. […] MEG‐01 cells were cultured in DMEM containing 10% fetal bovine serum, 100 U·mL^−1 penicillin and 100 U·mL^−1 streptomycin. […] Cells were grown at 37 °C in a humidified atmosphere with 5% CO2.” for “previously.”

K562 [4] = assay: cells; design: MTT cell viability of wild-type K562 beside EPHB4 mutant sublines, 48 h; details: Homo sapiens, K562, 48 h; read-out: IC50 (uM) K562-WT
Protocol: Exponential‐phase cells were seeded into 96‐well plates at a density of 2 × 10^4 cells per well in complete medium. After 24 h, cells were treated with drugs at indicated concentrations and incubated for 48 h. Fresh medium containing 20 μL MTT solution (5 mg·mL^−1) was then added to each well. Then plates were incubated for another 4 h at 37 °C. After removing the medium, 150 μL DMSO was added to each well. The absorbance was recorded at 490 nm in the microplate reader and the inhibition ratio (I%) was calculated. The cell growth assay was conducted as described previously. […] Similar results were shown for M4 mutants. […] (a) Three‐dimensional structure graph; (b) binding region; (c) plane schematic of interaction between the receptor and ligand. (B) Genomic position of sgRNAs and PAMs for EPHB4 knock‐out line, PAM site was colored in red. (C) The protein expression of EPHB4 in K562, K562‐Crispr‐1 and K562‐Crispr‐2 cells determined by western blot assay. P‐values were generated by one‐way ANOVA using the Tukey test for multiple comparisons. **P < 0.01 versus the K562 group. […] P‐values were generated by one‐way ANOVA using the Tukey test for multiple comparisons. *P < 0.05 versus the K562 group. (E) Five point‐mutation (M1–M5) and their corresponding wild‐type (WT) sequences. The point‐mutations of EPHB4: M1, I14A, G15A; M2, M83A, N85A, G86A; M3, A87Del; M4, S90A, F91A; M5, R93A, L94A. […]

[5] = Homo sapiens, K562, 48 h, read-out: Inhibition rate (%, 10 μM)
[6] = Homo sapiens, K562, 48 h; read-out: Inhibition rate (%, 10 μM)

SMILES | inhibition at 10 µM (K562 [3]; [5]) [%] | further results
Cc1ccc(C(=O)Nc2cccc(C(F)(F)F)c2)cc1Nc1nc(-c2cccnc2)nc2c1cnn2C [NVP‐BHG712] | – | IC50 [1]: 0.349 µM
COc1cc2c(Nc3ccc(Br)cc3F)ncnc2cc1OCC1CCN(C)CC1 [vandetanib, N‐(4‐bromo‐2‐fluorophenyl)‐6‐methoxy‐7‐[(1‐methylpiperidin‐4‐yl)methoxy]quinazolin‐4‐amine] | 99.7 | IC50 (MEG-01 cells): 1.46 ± 1.07 µM; IC50 (H9 cells): 11.2 ± 1.08 µM; IC50 (K562 [2]): 2.18 ± 1.07 µM; IC50 (K562 [4]): 2.05 ± 1.08 µM
CN(c1nccc(=O)[nH]1)C1CCN(c2nc3ccccc3n2Cc2ccc(F)cc2)CC1 [mizolastine] | -89.1 | –
COc1ccc([C@@H]2CC(=O)c3c(O)cc(O[C@@H]4O[C@H](CO)[C@@H](O)[C@H](O)[C@H]4O[C@@H]4O[C@@H](C)[C@H](O)[C@@H](O)[C@H]4O)cc3O2)cc1O [neohesperidin] | -49.4 | –
COc1cc2nccc(Oc3ccc(NC(=O)C4(C(=O)Nc5ccc(F)cc5)CC4)cc3)c2cc1OC [cabozantinib] | 90.1 | –
O=C1Nc2ccc(Cl)cc2[C@@](C#CC2CC2)(C(F)(F)F)O1 [sustiva] | -40.1 | –
CC(=O)Oc1c(C)cc(OCC(O)CNC(C)C)c(C)c1C (centres unmarked) [metipranolol] | -26.8 | –
O=c1c(O)c(-c2ccc(O)c(O)c2)oc2cc(O)cc(O)c12 [quercetin] | -58.4 | –
COC1=CC=C2[C@H]3Cc4ccc(OC)c5c4[C@@]2(CCN3C)[C@H]1O5 [thebaine] | – | inhibition at 10 µM (K562 [3]; [6]): -58.3%
CN1CCCC(n2nc(Cc3ccc(Cl)cc3)c3ccccc3c2=O)CC1 (centres unmarked) [azelastine] | -74.3 | –
CCOC(=O)C1(c2ccccc2)CCN(C)CC1 [pethidine] | -43.7 | –
COc1c2occc2cc2ccc(=O)oc12 [xanthotoxin] | -42.2 | –
Cc1cn([C@H]2C[C@H](N=[N+]=[N-])[C@@H](CO)O2)c(=O)[nH]c1=O [zidovudine] | 10.3 | –
COc1cc2c(cc1OC)[C@@H]1Cc3ccc(OC)c(OC)c3CN1CC2 [tetrahydropalmatine] | -83.4 | –
CC(=O)Nc1ccc(OCC(O)CNC(C)C)cc1 (centres unmarked) [practolol] | -62.1 | –
CCCCC1=NC2(CCCC2)C(=O)N1Cc1ccc(-c2ccccc2-c2nnn[nH]2)cc1 [irbesartan] | -56.4 | –
CC(C)(C)NC(=O)[C@@H]1C[C@@H]2CCCC[C@@H]2CN1C[C@@H](O)[C@H](Cc1ccccc1)NC(=O)[C@H](CC(N)=O)NC(=O)c1ccc2ccccc2n1 [saquinavir] | -30.4 | –
COc1cc2c(cc1OC)[C@@]13CCN4CC5=CCO[C@H]6CC(=O)N2[C@H]1[C@H]6[C@H]5C[C@H]43 [brucine] | – | inhibition at 10 µM (K562 [3]; [6]): -63.5%
CCCc1nc2c(C)cc(-c3nc4ccccc4n3C)cc2n1Cc1ccc(-c2ccccc2C(=O)O)cc1 [telmisartan] | -8.14 | –
